Measurements taken from PubChem BioAssay (NCI).
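Dose response: 5 concentrations. Exposure: 48 h. Format: 96-well plates. Endpoint: linear interpolation; highest concentration if not reached. GI50 is the concentration that inhibits growth by half. TGI: concentration producing complete growth inhibition.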

How the values were obtained:
Assay in all cases: DTP human tumour cell line panel, 48 h
OVCAR-3 ovarian = system: OVCAR-3 ovarian
UO-31 renal = system: UO-31 renal
HOP-92 NSCLC = system: HOP-92 NSCLC
CAKI-1 renal = system: CAKI-1 renal
K-562 leukemia = system: K-562 leukemia
ACHN renal = system: ACHN renal
UACC-257 melanoma = system: UACC-257 melanoma
MALME-3M melanoma = system: MALME-3M melanoma
NCI-H522 lung = system: NCI-H522 lung
SK-OV-3 ovarian = system: SK-OV-3 ovarian

SMILES | GI50 (OVCAR-3 ovarian) [µM] | TGI (OVCAR-3 ovarian) [µM] | GI50 (UO-31 renal) [µM] | TGI (UO-31 renal) [µM] | GI50 (HOP-92 NSCLC) [µM] | TGI (HOP-92 NSCLC) [µM] | GI50 (CAKI-1 renal) [µM] | TGI (CAKI-1 renal) [µM] | GI50 (K-562 leukemia) [µM] | TGI (K-562 leukemia) [µM] | GI50 (ACHN renal) [µM] | TGI (ACHN renal) [µM] | GI50 (UACC-257 melanoma) [µM] | TGI (UACC-257 melanoma) [µM] | GI50 (MALME-3M melanoma) [µM] | GI50 (NCI-H522 lung) [µM] | TGI (NCI-H522 lung) [µM] | TGI (MALME-3M melanoma) [µM] | GI50 (SK-OV-3 ovarian) [µM] | TGI (SK-OV-3 ovarian) [µM]
COc1ccc(-c2nn(-c3ccc(NC(=O)c4ccc(Cl)c(C(F)(F)F)c4)cc3)cc2-c2ccncc2)cc1Cl | 1.99 | > 100 | 0.566 | > 24.7 | 1.71 | 21.6 | 0.335 | 2.08 | 0.706 | > 100 | 1.58 | > 100 | 4.68 | > 94.9 | 1.11 | 4.03 | > 100 |  |  | 
CN1CCN(CCCOc2cccc3nc(Nc4ccc(Cl)c(F)c4)ccc23)CC1 | 1.7 | 3.29 | 1.57 | 3.32 | 1.33 | 5.27 | 2.53 | 8.47 |  |  | 1.66 | 3.07 | 2.04 | 3.64 | 1.92 | 1.75 | 3.33 | 4.05 | 1.79 | 3.44
CC(N=C(N)N)C(=O)O (stereo not drawn) |  | > 100 |  | > 100 |  |  |  | > 100 |  | > 100 |  | > 100 |  | > 100 |  |  | > 100 | > 100 |  | > 100
CCOC(=O)c1cc(/C=C/C(C)=C/C(=O)OC)oc1-c1ccccc1 |  | > 100 |  | > 100 |  |  |  | > 100 |  | > 100 |  | > 100 |  | > 100 |  |  | > 100 | > 100 |  | > 100
NC(=O)c1cc(-c2ccncc2)cc(-c2ccccc2)c1N | 20.5 | > 25 | 6.41 | > 25 |  |  | 8.34 | > 25 | > 20.1 | > 25 | 7.4 | > 25 | > 25 | > 25 | > 25 | 7.68 | > 15.8 | > 25 | 11.5 | > 25
CCCCN(CCCC)c1ccc(C(=N)c2ccc(N(C)C)cc2)cc1 | 0.448 | 1.6 | 0.0919 | 1.28 | 0.362 | 1.78 | 0.356 | 1.49 |  |  | 1.04 | 2.38 | 0.562 | 1.35 | 0.651 |  |  | 2.23 | 1.36 | 2.66
[N-]=[N+]=Nc1ccc(CCN2CCN(c3cccc(C(F)(F)F)c3)CC2)cc1I |  | > 100 |  | > 100 |  |  |  | > 100 |  | > 100 |  | > 100 |  | > 100 |  |  | > 100 | > 100 |  | > 100
CC(C)(C)N/N=C(\Cc1occc(=O)c1O)C(=O)Nc1ccc([N+](=O)[O-])cc1[N+](=O)[O-] |  |  |  | > 100 |  | > 100 |  | > 100 |  | > 100 |  | > 100 |  | > 100 |  |  | > 100 | > 100 |  | > 100
COc1cc([N+](=O)[O-])c(S(=O)(=O)O)cc1NS(=O)(=O)c1ccc(C)cc1 |  | > 100 |  | > 100 |  |  |  | > 100 |  | > 100 |  | > 100 |  | > 100 |  |  | > 100 |  |  | > 100
